Measured values reported in patent US20110144175A1, “METHOD FOR CONTROLLING DEGRADATION OF AGRICULTURAL CHEMICAL ACTIVE INGREDIENT” (priority 2008, published 2011).

Assay: Accelerated preservation test of dustable powder (Cyazofamid content by HPLC)
Type: physicochemical
Method: The dustable powder obtained by Example 1 or Comparative Example was subjected to an accelerated preservation at 54° C. for 14 days, and then the Cyazofamid content in the dustable powder was measured by an HPLC (high performance liquid chromatography) and degradation ratio (%) of Cyazofamid was calculated by the following formula. In this connection, the Cyazofamid content in the dustable powder preserved at 4° C. was measured at the time of measuring the Cyazofamid content in the dustable powder after accelerated preservation, and the value was used as the initial stage content. Degradation ratio (%)=(initial stage content−content after accelerated preservation)/initial stage content×100

| Substance | Degradation Ratio (%) of Cyazofamid [%] |
| --- | --- |
| Epoxidized Soybean Oil | 5 |
| Polyoxyethylene Castor Oil | 7 |
